Assay results as given in ChEMBL document CHEMBL3885881, “DrugMatrix”.

Species: Rattus norvegicus
Assay: DrugMatrix - Regimen: Daily Repeat
Type: toxicity, organism-based, Sprague-Dawley
Parameters: regimen Daily Repeat, gender Male, age 6-8 weeks
Conditions: in vivo, po, route oral GAVAGE, vehicle 100 % WATER; for ABSOLUTE BASOPHIL / ABSOLUTE EOSINOPHIL / ABSOLUTE LYMPHOCYTE / ABSOLUTE MONOCYTE / ABSOLUTE SEGMENTED NEUTROPHIL / BASOPHIL / EOSINOPHIL / ERYTHROCYTE COUNT / HEMATOCRIT / HEMOGLOBIN / LEUKOCYTE COUNT / LYMPHOCYTE / MEAN CORPUSCULAR HEMOGLOBIN / MEAN CORPUSCULAR HEMOGLOBIN CONCENTRATION / MONOCYTE / NEUTROPHIL / NUCLEATED RED BLOOD CELLS / PLATELET COUNT: tissue Blood; for ALANINE AMINOTRANSFERASE / ALBUMIN / ALKALINE PHOSPHATASE / BLOOD UREA NITROGEN / CARBON DIOXIDE / CHLORIDE / CHOLESTEROL / CREATINE PHOSPHOKINASE / CREATININE / GLUCOSE / LACTATE DEHYDROGENASE / LIPASE / PHOSPHORUS / POTASSIUM / SODIUM / TOTAL BILIRUBIN / TOTAL PROTEIN / URIC ACID: tissue Plasma
[1] = 15 mg/kg, 120 h, dose level Low, time 5 day
[2] = 150 mg/kg, 72 h, dose level High, time 3 day
[3] = 150 mg/kg, 120 h, dose level High, time 5 day

SMILES: Cc1ccc(NC(=O)c2ccc(CN3CCN(C)CC3)cc2)cc1Nc1nccc(-c2cccnc2)n1 [IMATINIB]
- ABSOLUTE BASOPHIL [1]: 0 CELLS/uL
- ABSOLUTE EOSINOPHIL [1]: 72.33 CELLS/uL
- ABSOLUTE LYMPHOCYTE [1]: 6282 CELLS/uL
- ABSOLUTE MONOCYTE [1]: 25.33 CELLS/uL
- ABSOLUTE SEGMENTED NEUTROPHIL [1]: 653.67 CELLS/uL
- BASOPHIL [1]: 0%
- EOSINOPHIL [1]: 1%
- ERYTHROCYTE COUNT [1]: 5.21 x10E6/uL
- HEMATOCRIT [1]: 33.07%
- HEMOGLOBIN [1]: 12.73 G/DL
- LEUKOCYTE COUNT [1]: 7.03 x10E3/uL
- LYMPHOCYTE [1]: 89.67%
- MEAN CORPUSCULAR HEMOGLOBIN [1]: 24.43 pg
- MEAN CORPUSCULAR HEMOGLOBIN CONCENTRATION [1]: 38.53 G/DL
- MONOCYTE [1]: 0.33%
- NEUTROPHIL [1]: 9%
- NUCLEATED RED BLOOD CELLS [1]: 0 /100WBC
- PLATELET COUNT [1]: 1004.67 x10E3/uL
- ALANINE AMINOTRANSFERASE [1]: 55.67 u/L
- ALBUMIN [1]: 4.2 G/DL
- ALKALINE PHOSPHATASE [1]: 357.67 u/L
- BLOOD UREA NITROGEN [1]: 14.67 mg/dL
- CARBON DIOXIDE [1]: 28 mmol/L
- CHLORIDE [1]: 100.33 MEQ/L
- CHOLESTEROL [1]: 60 mg/dL
- CREATINE PHOSPHOKINASE [1]: 404.33 u/L
- CREATININE [1]: 0.17 mg/dL
- GLUCOSE [1]: 140.33 mg/dL
- LACTATE DEHYDROGENASE [1]: 183.67 u/L
- LIPASE [1]: 8 u/L
- PHOSPHORUS [1]: 11.1 mg/dL
- POTASSIUM [1]: 5.69 MEQ/L
- SODIUM [1]: 145.7 MEQ/L
- TOTAL BILIRUBIN [1]: 0.3 mg/dL
- TOTAL PROTEIN [1]: 6 G/DL
- URIC ACID [1]: 0.73 mg/dL
- ABSOLUTE BASOPHIL [2]: 0 CELLS/uL
- ABSOLUTE EOSINOPHIL [2]: 64 CELLS/uL
- ABSOLUTE LYMPHOCYTE [2]: 9025.33 CELLS/uL
- ABSOLUTE MONOCYTE [2]: 0 CELLS/uL
- ABSOLUTE SEGMENTED NEUTROPHIL [2]: 844 CELLS/uL
- BASOPHIL [2]: 0%
- EOSINOPHIL [2]: 0.67%
- ERYTHROCYTE COUNT [2]: 5.45 x10E6/uL
- HEMATOCRIT [2]: 34.93%
- HEMOGLOBIN [2]: 13 G/DL
- LEUKOCYTE COUNT [2]: 9.93 x10E3/uL
- LYMPHOCYTE [2]: 90.33%
- MEAN CORPUSCULAR HEMOGLOBIN [2]: 23.83 pg
- MEAN CORPUSCULAR HEMOGLOBIN CONCENTRATION [2]: 37.2 G/DL
- MONOCYTE [2]: 0%
- NEUTROPHIL [2]: 9%
- NUCLEATED RED BLOOD CELLS [2]: 0 /100WBC
- PLATELET COUNT [2]: 1243.33 x10E3/uL
- ALANINE AMINOTRANSFERASE [2]: 86 u/L
- ALBUMIN [2]: 4.3 G/DL
- ALKALINE PHOSPHATASE [2]: 449.67 u/L
- BLOOD UREA NITROGEN [2]: 14.67 mg/dL
- CARBON DIOXIDE [2]: 26.33 mmol/L
- CHLORIDE [2]: 105.33 MEQ/L
- CHOLESTEROL [2]: 61.33 mg/dL
- CREATINE PHOSPHOKINASE [2]: 205.67 u/L
- CREATININE [2]: 0.17 mg/dL
- GLUCOSE [2]: 154 mg/dL
- LACTATE DEHYDROGENASE [2]: 135.33 u/L
- LIPASE [2]: 9 u/L
- PHOSPHORUS [2]: 11 mg/dL
- POTASSIUM [2]: 5.83 MEQ/L
- SODIUM [2]: 145.03 MEQ/L
- TOTAL BILIRUBIN [2]: 0.23 mg/dL
- TOTAL PROTEIN [2]: 5.97 G/DL
- URIC ACID [2]: 1.3 mg/dL
- ABSOLUTE BASOPHIL [3]: 0 CELLS/uL
- ABSOLUTE EOSINOPHIL [3]: 37 CELLS/uL
- ABSOLUTE LYMPHOCYTE [3]: 11284 CELLS/uL
- ABSOLUTE MONOCYTE [3]: 0 CELLS/uL
- ABSOLUTE SEGMENTED NEUTROPHIL [3]: 1012.33 CELLS/uL
- BASOPHIL [3]: 0%
- EOSINOPHIL [3]: 0.33%
- ERYTHROCYTE COUNT [3]: 5.01 x10E6/uL
- HEMATOCRIT [3]: 32.5%
- HEMOGLOBIN [3]: 12.27 G/DL
- LEUKOCYTE COUNT [3]: 12.33 x10E3/uL
- LYMPHOCYTE [3]: 91.33%
- MEAN CORPUSCULAR HEMOGLOBIN [3]: 24.53 pg
- MEAN CORPUSCULAR HEMOGLOBIN CONCENTRATION [3]: 37.73 G/DL
- MONOCYTE [3]: 0%
- NEUTROPHIL [3]: 8.33%
- NUCLEATED RED BLOOD CELLS [3]: 0 /100WBC
- PLATELET COUNT [3]: 1206.67 x10E3/uL
- ALANINE AMINOTRANSFERASE [3]: 77.33 u/L
- ALBUMIN [3]: 4.37 G/DL
- ALKALINE PHOSPHATASE [3]: 359.33 u/L
- BLOOD UREA NITROGEN [3]: 17.33 mg/dL
- CARBON DIOXIDE [3]: 27.33 mmol/L
- CHLORIDE [3]: 100 MEQ/L
- CHOLESTEROL [3]: 49.67 mg/dL
- CREATINE PHOSPHOKINASE [3]: 251 u/L
- CREATININE [3]: 0.21 mg/dL
- GLUCOSE [3]: 162 mg/dL
- LACTATE DEHYDROGENASE [3]: 163.67 u/L
- LIPASE [3]: 9 u/L
- PHOSPHORUS [3]: 10.77 mg/dL
- POTASSIUM [3]: 5.96 MEQ/L
- SODIUM [3]: 141.83 MEQ/L
- TOTAL BILIRUBIN [3]: 0.2 mg/dL
- TOTAL PROTEIN [3]: 5.9 G/DL
- URIC ACID [3]: 1.47 mg/dL
